Where “and” joins values, the source holds several entries; their conditions need not be identical. Equal values may be shown once. Read-outs that look alike come from different tables or passages of the source.
Assays:
c-Src = target: T1, c-Src (Homo sapiens, UniProt P12931); assay: c-Src Kinase Assay (ELISA format); format: biochemical
T1 construct: purchased Upstate Biotechnologies
Outline: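 Partially purified Src preincubated with compound and biotinylated peptide 10 min at 30 °C in Tris-HCl pH 7.5 with MgCl2, EGTA, vanadate; ATP-started reaction ran 1 h at 30 °C, EDTA-stopped. Phosphopeptide captured on streptavidin, detected by HRP anti-phosphotyrosine; % inhibition = (1 − Abs/Abs(max)) × 100.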

[1] = system: Rat2 fibroblasts stably transformed with a plasmid containing a CMV promotor controlled v-Src/Hu c-Src fusion gene; assay: Anchorage Independent Src-transformed Fibroblast Proliferation Assay
[2] = Rattus norvegicus, Rat2, 120 h, read-out: anch-indep src-tx fib IC50, suspension growth, MTS on Day 5

Compound	IC50 (c-Src)	inhibition at 10 µM (c-Src; at 10 µM) [%]	IC50 ([1]; read-out: anch-indep src-tx fib IC50, suspension growth, MTS on Day 5) [nM]	IC50 [1, 2] [nM]
4-(2,4-Dichloro-5-methoxyanilino)-7-{5-[(4-hydroxy-1-piperidinyl)methyl]-2-thienyl}-3-quinolinecarbonitrile [Example 89]	0.52 nM and 0.84 nM	–	90	–
N#Cc1cnc2cc(-c3cc(CN4CCOCC4)c(CN4CCOCC4)s3)ccc2c1Nc1ccc(Cl)cc1Cl [Example 17, 7-[4,5-Bis(4-morpholinylmethyl)-2-thienyl]-4-(2,4-dichloroanilino)-3-quinolinecarbonitrile]	0.7 nM and 2.1 nM and 3.1 nM	–	–	310
N#Cc1cnc2cc(-c3ccc(CCN4CCOCC4)s3)ccc2c1Nc1ccc(Cl)cc1Cl [Example 9, 4-(2,4-Dichloroanilino)-7-{5-[2-(4-morpholinyl)ethyl]-2-thienyl}-3-quinolinecarbonitrile]	6 nM	–	–	2700
COc1cc(Nc2c(C#N)cnc3cc(-c4ccc[nH]4)ccc23)c(Cl)cc1Cl [Example 104, 4-(2,4-Dichloro-5-methoxyanilino)-7-(1H-pyrrol-2-yl)-3-quinolinecarbonitrile]	14 nM	–	–	560
COc1cc(Nc2c(C#N)cnc3cc(-c4ccc(CNCCS(C)(=O)=O)n4C)ccc23)c(Cl)cc1Cl [Example 73, 4-(2,4-Dichloro-5-methoxyanilino)-7-[1-methyl-5-({[2-(methylsulfonyl)ethyl]amino}methyl)-1H-pyrrol-2-yl]-3-quinolinecarbonitrile]	58 nM and 75 nM	–	–	> 10000
COc1cc(Nc2c(C#N)cnc3cc(-c4ccc(CN5CCCCC5)s4)ccc23)c(Cl)cc1Cl [Example 78, 4-(2,4-Dichloro-5-methoxyanilino)-7-[5-(1-piperidinylmethyl)-2-thienyl]-3-quinolinecarbonitrile]	1.3 nM	–	–	140
COc1cc(Nc2c(C#N)cnc3cc(-c4ccc(CNCCS(=O)(=O)c5ccccc5)n4C)ccc23)c(Cl)cc1Cl [Example 72, 4-(2,4-Dichloro-5-methoxyanilino)-7-[1-methyl-5-({[2-(phenylsulfonyl)ethyl]amino}methyl)-1H-pyrrol-2-yl]-3-quinolinecarbonitrile]	78 nM	–	–	> 10000
CCN1CCN(Cc2cc(-c3ccc4c(Nc5ccc(Cl)cc5Cl)c(C#N)cnc4c3)cs2)CC1 [Example 10, 4-(2,4-Dichloroanilino)-7-{5-[(4-ethyl-1-piperazinyl)methyl]-3-thienyl}-3-quinolinecarbonitrile]	2.4 nM	–	–	900
COc1cc(Nc2c(C#N)cnc3cc(-c4ccc(CNCCS(=O)(=O)c5ccccc5)cc4)ccc23)c(Cl)cc1Cl [Example 85, 4-(2,4-Dichloro-5-methoxyanilino)-7-[4-({[2-(phenylsulfonyl)ethyl]amino}methyl)phenyl]-3-quinolinecarbonitrile]	36 nM and 41 nM	–	–	10200
COc1cc(Nc2c(C#N)cnc3cc(-c4ccc(C5OCCO5)o4)ccc23)c(Cl)cc1Cl [Example 5, 4-(2,4-Dichloro-5-methoxyanilino)-7-[5-(1,3-dioxolan-2-yl)-2-furyl]-3-quinolinecarbonitrile]	4.3 nM	–	–	200
N#Cc1cnc2cc(C#CCCCN3CCOCC3)ccc2c1Nc1ccc(Cl)cc1Cl [Example 11, 4-(2,4-Dichloroanilino)-7-[5-(4-morpholinyl)-1-pentynyl]-3-quinolinecarbonitrile]	43 nM	–	–	> 10000
CCN1CCN(Cc2cc(-c3ccc4c(Nc5cc(OC)c(Cl)cc5Cl)c(C#N)cnc4c3)cs2)CC1 [Example 19, 4-(2,4-Dichloro-5-methoxyanilino)-7-{5-[(4-ethyl-1-piperazinyl)methyl]-3-thienyl}-3-quinolinecarbonitrile]	2 nM and 1.7 nM	–	–	160
COc1cc(Nc2c(C#N)cnc3cc(-c4ccc(CN(CCO)CCO)o4)ccc23)c(Cl)cc1Cl [Example 76, 7-(5-{[Bis(2-hydroxyethyl)amino]methyl}-2-furyl)-4-(2,4-dichloro-5-methoxyanilino)-3-quinolinecarbonitrile]	22 nM	–	–	1100
COc1cc(Nc2c(C#N)cnc3cc(-c4cc(CN5CCOCC5)c(CN5CCOCC5)s4)c(OC)cc23)c(Cl)cc1Cl [Example 82, 7-[4,5-Bis(4-morpholinylmethyl)-2-thienyl]-4-(2,4-dichloro-5-methoxyanilino)-6-methoxy-3-quinolinecarbonitrile]	0.48 nM	–	–	50
COc1cc(Nc2c(C#N)cnc3cc(-c4ccc(CNCCS(=O)(=O)c5ccccc5)o4)ccc23)c(Cl)cc1Cl [Example 58, 4-(2,4-Dichloro-5-methoxyanilino)-7-[5-({[2-(phenylsulfonyl)ethyl]amino}methyl)-2-furyl]-3-quinolinecarbonitrile]	11 nM	–	–	5100
COc1cc(Nc2c(C#N)cnc3cc(-c4csc(CN5CCOCC5)c4)ccc23)c(Cl)cc1F [Example 79, 4-(2-chloro-4-fluoro-5-methoxyanilino)-7-[5-(4-morpholinylmethyl)-3-thienyl]-3-quinolinecarbonitrile]	1.7 nM	–	–	130

Further lines, with some results ahead:

IC50 (c-Src)	inhibition at 10 µM (c-Src; at 10 µM) [%]	Compound	IC50 ([1]; read-out: anch-indep src-tx fib IC50, suspension growth, MTS on Day 5) [nM]	IC50 [1, 2] [nM]
240 nM and 200 nM	–	COc1cc(Nc2c(C#N)cnc3cc(C#Cc4ccccc4)ccc23)c(Cl)cc1Cl [Example 140, 4-(2,4-dichloro-5-methoxyanilino)-7-(2-phenylethynyl)-3-quinolinecarbonitrile]	–	> 10000
8.6 nM	–	CCOC(=O)C1CCCN(Cc2ccc(-c3ccc4c(Nc5cc(OC)c(Cl)cc5Cl)c(C#N)cnc4c3)cc2)C1 (stereo not shown) [Example 148, ethyl 1-(4-{3-cyano-4-[(2,4-dichloro-5-methoxyphenyl)amino]-7-quinolinyl}benzyl)-3-piperidinecarboxylate]	–	2100
210 nM and 160 nM and 120 nM	–	COc1cc(Nc2c(C#N)cnc3cc(-c4ccc5ccccc5c4)ccc23)c(Cl)cc1Cl [Example 117, 4-(2,4-Dichloro-5-methoxyanilino)-7-(2-naphthyl)-3-quinolinecarbonitrile]	–	6900
300 nM and 340 nM	–	COc1cc(Nc2c(C#N)cnc3cc(/C=C/c4ccccc4)ccc23)c(Cl)cc1Cl [Example 139, 4-(2,4-dichloro-5-methoxyanilino)-7-[(E)-2-phenylethenyl]-3-quinolinecarbonitrile]	–	> 10000
7.2 nM	–	COc1cc(Nc2c(C#N)cnc3cc(-c4ccc(CN5CCOCC5)cc4)ccc23)c(Cl)cc1C [Example 234, 4-(2-chloro-5-methoxy-4-methylanilino)-7-[4-(4-morpholinylmethyl)phenyl]-3-quinolinecarbonitrile]	–	720
3 nM	–	COc1ccc(Cl)c(Nc2c(C#N)cnc3cc(-c4ccc(CN5CCOCC5)cc4)ccc23)c1 [Example 236, 4-(2-chloro-5-methoxyanilino)-7-[4-(4-morpholinylmethyl)phenyl]-3-quinolinecarbonitrile]	–	570
95 nM	–	COc1cc(Nc2c(C#N)cnc3cc(-c4cccc(N)c4)ccc23)c(Cl)cc1Cl [Example 174, 7-(3-aminophenyl)-4-(2,4-dichloro-5-methoxyanilino)-3-quinolinecarbonitrile]	–	5600
2.3 nM	–	COc1cc(Nc2c(C#N)cnc3cc(-c4ccc(CNCCc5ccccn5)cc4)ccc23)c(Cl)cc1Cl [Example 229, 4-(2,4-dichloro-5-methoxyanilino)-7-[4-({[2-(2-pyridinyl)ethyl]amino}methyl)phenyl]-3-quinolinecarbonitrile]	–	450
12 nM	–	COc1ccc(-c2ccc3c(Nc4cc(OC)c(Cl)cc4Cl)c(C#N)cnc3c2)cc1 [Example 194, 4-(2,4-dichloro-5-methoxyanilino)-7-(4-methoxyphenyl)-3-quinolinecarbonitrile]	–	> 10000
410 nM	–	COc1cc(Nc2c(C#N)cnc3cc(-c4ncccc4CN4CCOCC4)ccc23)c(Cl)cc1Cl [Example 111, 4-(2,4-Dichloro-5-methoxyanilino)-7-[3-(morpholin-4-ylmethyl)-pyridin-2-yl]-3-quinolinecarbonitrile]	–	> 10000
4 nM	–	CCOC(=O)CC1CCN(Cc2ccc(-c3ccc4c(Nc5cc(OC)c(Cl)cc5Cl)c(C#N)cnc4c3)cc2)CC1 [Example 144, ethyl (1-{4-[3-cyano-4-(2,4-dichloro-5-methoxyanilino)-7-quinolinyl]benzyl}-4-piperidinyl)acetate]	–	92
–	25	COc1cc(Nc2c(C#N)cnc3cc(-c4cccc5ccccc45)ccc23)c(Cl)cc1Cl [Example 116, 4-(2,4-Dichloro-5-methoxyanilino)-7-(1-naphthyl)-3-quinolinecarbonitrile]	–	> 10000
4.8 nM and 1.8 nM	–	COc1cc(Nc2c(C#N)cnc3cc(-c4ccc(C(=O)O)cc4)ccc23)c(Cl)cc1Cl [Example 121, 4-[3-Cyano-4-(2,4-dichloro-5-methoxyanilino)-7-quinolinyl]benzoic acid]	–	> 10000
26 nM	–	COc1cc(Nc2c(C#N)cnc3cc(C#CCO)ccc23)c(Cl)cc1Cl [Example 143, 4-(2,4-dichloro-5-methoxyanilino)-7-(3-hydroxy-1-propynyl)-3-quinolinecarbonitrile]	–	> 10000
76 nM	–	COc1cc(Nc2c(C#N)cnc3cc(-c4ccc(CO)n4C)ccc23)c(Cl)cc1Cl [Example 162, 4-(2,4-dichloro-5-methoxyanilino)-7-[5-(hydroxymethyl)-1-methyl-1H-pyrrol-2-yl]-3-quinolinecarbonitrile]	–	> 10000
4.1 nM	–	COc1cc(Nc2c(C#N)cnc3cc(-c4ccc(CN5CCOCC5)cc4)ccc23)c(Cl)cc1F [Example 235, 4-(2-chloro-4-fluoro-5-methoxyanilino)-7-[4-(4-morpholinylmethyl)phenyl]-3-quinolinecarbonitrile]	–	790

From patent publication EP1268431B1 (Wyeth, priority 2000, dated 2001)
